Measured values taken from US20010041682A1, “Dinucleotides useful for the treatment of lung disease” (priority 1995, published 2001).

Tests used:
airway epithelia = assay: Cl− secretion by cultured normal airway cells on permeable supports (Example 1); type: cell-based
Protocol: (§1) Normal airway cells were cultured on permeable supports and Cl^− secretion assayed as previously described in M. J. Stutts, et al., Am. J. Physiol. 267, C1442-C1451 (1994). Cl^− secretion was measured after administration of the dinucleotide A2P4 (Sigma Chemicals, St. Louis, Mo.). Amiloride was added to block airway epithelial sodium absorption.
Moreover, the administration of A2P4 had no effect on Cl^− secretion in airway epithelia pre-stimulated with UTP, which is known to activate non-CFTR Cl^− channels. […] Stimulation of this receptor is thus a therapeutic strategy for certain lung diseases, including cystic fibrosis.

[1] = system: Cultured airway epithelia; assay: Cl− secretion by cultured airway epithelia, UTP compared with U2P4 (Example 2); type: cell-based; conditions: for Mean Cl− secretion Induced: 10^−4 M on mucosal surface, tissues pretreated with amiloride (10^−4 M); for Effectiveness (efficacy) on Cl− secretion, UTP compared with U2P4: 10^−4 M, the highest concentration tested, amiloride (10^−4 M) pretreated
Protocol: as §1
Studies were carried out according to the method described in Example 1 to compare the effectiveness (efficacy) of UTP and U2P4. Cultured airway epithelia were exposed to a concentration of from 10^−9 M to […] of either UTP or U2P4 in 6 ml of solution circulating over the mucosal surface. The tissues were pretreated with amiloride (10^−4 M) to block Na^+ absorption. Under these conditions, the current generated by the tissues is due to Cl^− secretion. UTP and U2P4 induced a similar pattern of Cl^− secretion. At 10^−4 M, the highest concentration tested, UTP and U2P4 were equieffective (equiefficacious).

| Structure (SMILES) | Effect on Cl− secretion (airway epithelia; airway epithelia pre-stimulated with UTP) | Effect on Cl− secretion (airway epithelia; exposed to the basolateral surface of the airway epithelial preparation, amiloride added) | Effect on Cl− secretion (airway epithelia; luminal surface, airway epithelia treated with forskolin, amiloride added) | Mean Cl− secretion Induced [1] [μA/cm^2] | Effectiveness (efficacy) on Cl− secretion, UTP compared with U2P4 [1] |
| --- | --- | --- | --- | --- | --- |
| Nc1ncnc2c1ncn2[C@@H]1O[C@H](COP(=O)(O)OP(=O)(O)OP(=O)(O)OP(=O)(O)OC[C@H]2O[C@@H](n3cnc4c(N)ncnc43)[C@H](O)[C@@H]2O)[C@@H](O)[C@H]1O [A2P4] | no effect | little effect | stimulated additional Cl^− secretion |  |  |
| O=c1ccn([C@@H]2O[C@H](COP(=O)(O)OP(=O)(O)OP(=O)(O)OP(=O)(O)OC[C@H]3O[C@@H](n4ccc(=O)[nH]c4=O)[C@H](O)[C@@H]3O)[C@@H](O)[C@H]2O)c(=O)[nH]1 [U2P4, UppppU] |  |  |  | 43.8 | equieffective |
| O=c1ccn([C@@H]2O[C@H](COP(=O)(O)OP(=O)(O)OP(=O)(O)O)[C@@H](O)[C@H]2O)c(=O)[nH]1 [UTP, reference compound] |  |  |  | 45.3 | equieffective |
